The first assay concerns the target T1, human TREK-1 (Homo sapiens, UniProt O95069).
T1 construct: expressed in transfected cells
T1 sequence (O95069 1-426): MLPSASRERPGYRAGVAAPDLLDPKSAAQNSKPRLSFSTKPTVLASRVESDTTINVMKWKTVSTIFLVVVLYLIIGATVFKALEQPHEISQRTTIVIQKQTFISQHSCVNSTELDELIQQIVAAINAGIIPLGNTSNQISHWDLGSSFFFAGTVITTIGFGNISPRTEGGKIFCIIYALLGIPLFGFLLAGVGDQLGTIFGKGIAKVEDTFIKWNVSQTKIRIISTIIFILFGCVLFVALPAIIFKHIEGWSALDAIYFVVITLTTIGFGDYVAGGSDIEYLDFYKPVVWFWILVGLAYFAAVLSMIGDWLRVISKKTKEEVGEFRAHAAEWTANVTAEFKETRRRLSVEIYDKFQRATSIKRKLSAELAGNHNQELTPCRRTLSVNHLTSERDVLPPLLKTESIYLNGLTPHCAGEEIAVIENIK
Put plainly: TREK-1 Thallium (Tl+) flux assay, Method 1. The assay is classed as cell-based. To be noted: TREK-1 Thallium (Tl+) flux assay, Method 1. The procedure, abridged: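 Readout: Thallos fluorescence ratio, taken 25 s post-thallium relative to the pre-thallium baseline average, then converted to % inhibition. Cells were CHO-K1 stably expressing human TREK-1, dye-loaded and exposed to test compound (vehicle 0.3% DMSO) for 10 min prior to thallium stimulation.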
For orientation: IC50 means the midpoint of a concentration-inhibition curve. A higher IC50 goes with weaker potency. Consider `CC(=O)N1CCC(n2ncc(Cl)c2C(=O)Nc2ncc(OCc3ccccc3)cc2C)CC1` [Compound 393, 1-(1-acetylpiperidin-4-yl)-N-(5-(benzyloxy)-3-methylpyridin-2-yl)-4-chloro-1H-pyrazole-5-carboxamide], for which the IC50 is 1270 nM.

Still in this assay, the particulars now being: TREK-1 Thallium (Tl+) flux assay; no *^12 (Method 2) mark on these rows.
Take `N#CC1CC(n2ncc(Cl)c2C(=O)Nc2ncc(C#Cc3ccccc3)cc2F)C1` (stereo not shown) [Compound 266, 4-chloro-1-(3-cyanocyclobutyl)-N-(3-fluoro-3-(phenylethynyl)pyridin-2-yl)-1H-pyrazole-5-carboxamide]: the half-inhibitory concentration (IC50) stood at 440 nM. In other words, the sub-micromolar range. Still for that read-out and setting: under `Cc1cc(C#Cc2ccccc2)cnc1NC(=O)c1c(Cl)cnn1CC1(C)CCN(C(=O)C2COCCO2)CC1` (stereo not shown) [Compound 251, 1-((1-(1,4-dioxane-2-carbonyl)-4-methylpiperidin-4-yl)methyl)-4-chloro-N-(3-methyl-5-(phenylethynyl)pyridin-2-yl)-1H-pyrazole-5-carboxamide] stands 400 nM.

Staying with this assay, now noted: TREK-1 Thallium (Tl+) flux assay; values without footnote *12 are Method 1.
The molecule `CC(C)C(=O)N1CCC(CCn2ncc(Cl)c2C(=O)Nc2ncc(C#Cc3ccccc3)cc2F)CC1` [Compound 144, 4-chloro-N-(3-fluoro-5-(phenylethynyl)pyridin-2-yl)-1-(2-(1-isobutyrylpiperidin-4-yl)ethyl)-1H-pyrazole-5-carboxamide] yielded an IC50 of 230 nM. Still for that read-out and setting: to `O=C(Nc1ncc(C#Cc2cccc(F)c2)cc1F)c1c(Cl)cnn1CC1CCOCC1` [Compound 50, 4-chloro-N-(3-fluoro-5-((3-fluorophenyl)ethynyl)pyridin-2-yl)-1-((tetrahydro-2H-pyran-4-yl)methyl)-1H-pyrazole-5-carboxamide] belongs 140 nM; to `Cc1cc(C#Cc2ccc(F)cc2)cnc1NC(=O)c1c(Cl)cnn1C1CCN(C(=O)C2CC2)CC1` [Compound 101, 4-chloro-1-(1-(cyclopropanecarbonyl)piperidin-4-yl)-N-(5-((4-fluorophenyl)ethynyl)-3-methylpyridin-2-yl)-1H-pyrazole-5-carboxamide], 190 nM.

Take `CC(=O)N1CCCC(n2ncc(Cl)c2C(=O)Nc2ncc(C#Cc3ccccc3)cc2F)CC1` (stereo not shown) [Compound 26]: the half-maximal inhibitory concentration (IC50) was 90 nM. This IC50 is about 2.1-fold lower than that of the molecule before. Still for that read-out and setting: to `Cc1cc(C#Cc2ccccc2)cnc1NC(=O)c1c(Cl)cnn1C1CN(C(=O)C2COCCO2)C1` (stereo not shown) [Compound 81, 1-(1-(1,4-dioxane-2-carbonyl)azetidin-3-yl)-4-chloro-N-(3-methyl-5-(phenylethynyl)pyridin-2-yl)-1H-pyrazole-5-carboxamide] belongs 160 nM. `CC(=O)N1CCC(n2ncc(Cl)c2C(=O)Nc2ncc(C#Cc3ccc(F)cc3)cc2C)CC1C` (stereo not shown) [Compound 62, 1-(1-acetyl-2-methylpiperidin-4-yl)-4-chloro-N-(5-((4-fluorophenyl)ethynyl)-3-methylpyridin-2-yl)-1H-pyrazole-5-carboxamide] returned an IC50 of 150 nM. Still for that read-out and setting: to `CC(C)C(=O)N1CCC(F)(Cn2ncc(Cl)c2C(=O)Nc2ncc(C#Cc3ccccc3)cc2F)CC1` [Compound 190, 4-chloro-1-((4-fluoro-1-isobutyrylpiperidin-4-yl)methyl)-N-(3-fluoro-5-(phenylethynyl)pyridin-2-yl)-1H-pyrazole-5-carboxamide] belongs 290 nM; to `O=C(Nc1ncc(C#Cc2ccccc2)cc1F)c1c(Cl)cnn1C1CCN(C(=O)C2CC2)CC1` [Compound 130, 4-chloro-1-(1-(cyclopropanecarbonyl)piperidin-4-yl)-N-(3-fluoro-5-(phenylethynyl)pyridin-2-yl)-1H-pyrazole-5-carboxamide], 220 nM; to `CC(=O)N1CCC(n2ncc(Cl)c2C(=O)Nc2ncc(C#Cc3cccc(F)c3)cc2C)CC1` [Compound 71, 1-(1-acetylpiperidin-4-yl)-4-chloro-N-(5-((3-fluorophenyl)ethynyl)-3-methylpyridin-2-yl)-1H-pyrazole-5-carboxamide], 160 nM.

Still in this assay, the particulars now being: read-out: Tl^+ Assay % inhibition at 30 uM (Minus value indicates activation of TREK-1); at 30 uM; CHO-K1 cells stably expressing human TREK-1; minus = activation.
By inhibition is commonly meant the relative decrease from the control value, in per cent. With `CC(=O)N1CCC(CCn2cc(Cl)c(C(=O)Nc3ncc(C#Cc4cccs4)cc3F)n2)CC1` [Compound 447, 1-(2-(1-acetylpiperidin-4-yl)ethyl)-4-chloro-N-(3-fluoro-5-(thiophen-2-ylethynyl)pyridin-2-yl)-1H-pyrazole-3-carboxamide], the inhibition at 30 µM is -107%.
